Converted amounts (≈) assume the structure as drawn. Structures can show the parent of a compound that is named as a salt.
Key:
[1] = tested on: ANKA strain of P. berghei; assay: Single dose STI in vivo screen in infected mice; parameters: species or system Plasmodium berghei; settings: for Survival (days) 10 mg/kg po: single 10 mg/kg po in 3% ethanol and 7% Tween 80; for Survival (days) 10 mg/kg po / Survival (days) 10 mg/kg SSV po / Survival (days) 10 mg/kg sc: untreated 6-7 days; for Activity (%) 10 mg/kg po: single 10 mg/kg po in 3% ethanol and 7% Tween 80 on day 1 post-infection; for Activity (%) 10 mg/kg po / Activity (%) 10 mg/kg SSV po / Activity (%) 10 mg/kg sc: percent reduction in parasitemia on day 3; for Survival (days) 10 mg/kg SSV po: single 10 mg/kg po in SSV; for Activity (%) 10 mg/kg SSV po: single 10 mg/kg po in standard suspending vehicle (SSV) on day 1 post-infection; for Survival (days) 10 mg/kg sc: single 10 mg/kg sc in 3% ethanol and 7% Tween 80; for Activity (%) 10 mg/kg sc: single 10 mg/kg sc in 3% ethanol and 7% Tween 80 on day 1 post-infection
[2] = tested on: Schistosoma mansoni 21-day-old schistosomules; assay: Effect on 21-day-old schistosomules in infected mice; type: in vivo; settings: for % reduction of schistosomule growth at day 21 after per os application of 200 mg/kg, FWR (%): female worm reduction rate
Description: Mice were infected with 100 Schistosoma mansoni cercariae on day 21 post-treatment. Each group was treated per os with trioxolanes at a single dose of 200 mg/kg. […] All groups were killed 4 weeks after treatment and the liver and intestine were removed and separated. The liver and intestine were compressed and alive male and female worms could be seen and counted. The effect of the compounds was evaluated by mean total and female worm burden.

[3] = tested on: Schistosoma mansoni adult worms (49-day-old); assay: Effect on adult schistosomes (49-day-old) in infected mice; type: in vivo; settings: for % reduction of adult worms growth at day 49 after per os application of 400 mg/kg, TWR (%) / Adult worms day 49, per os 400 mg/kg, DEAD WORM (%): single 400 mg/kg per os
Description: Mice were infected with 100 Schistosoma mansoni cercariae on day 49 post-treatment. Each group was treated per os with OZ compounds at single doses of 200, 400, and 600 mg/kg. Untreated mice served as the control. All groups were killed 4 weeks after treatment and the liver and intestine were removed and separated. The liver and intestine were compressed and alive male and female worms could be seen and counted.

[4] = tested on: chloroquine-sensitive NF54 strain of P. falciparum; assay: In vitro antimalarial semiautomated microdilution assay ([3H]-hypoxanthine incorporation), NF54 strain; type: cell-based, Plasmodium falciparum; settings: Plasmodium falciparum, NF54, 72 h, read-out: IC50 (ng/ml) NF54, chloroquine-sensitive NF54 strain, 72 h incubation
Method in brief: (§1)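 Asynchronous stock-culture parasites (intraerythrocytic forms), serial compound dilutions; readout [3H]-hypoxanthine uptake; IC50 via Logit regression.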

[5] = tested on: chloroquine-resistant K1 strain of P. falciparum; assay: In vitro antimalarial semiautomated microdilution assay ([3H]-hypoxanthine incorporation), K1 strain; type: cell-based, Plasmodium falciparum; settings: Plasmodium falciparum, K1, 72 h, read-out: IC50 (ng/ml) K1, chloroquine-resistant K1 strain, 72 h incubation
Method in brief: as §1

[6] = tested on: ANKA strain of Plasmodium berghei; assay: Single dose ED50/ED90/ED99 determination in infected mice; type: in vivo; settings: single dose po in SSV on day 1 post-infection, parasitemia day 3, nonlinear fitting
Description: In the single dose ED50/ED98/ED99 determinations, Moro SPF or NMRI mice (group of three) infected with the ANKA strain of Plasmodium berghei were treated on day one post-infection. […] The SSV consists of 0.5% w/v CMC, 0.5% v/v benzyl alcohol, 0.4% v/v Tween 80, and 0.9% w/v sodium chloride in water. Antimalarial activity was measured by percent reduction in parasitemia on day three post-infection. The ED50/ED90 values were calculated by nonlinear fitting.
The ED50, ED90, and ED99 values were calculated by non-linear fitting with statistical program and were expressed in mg/kg.

[7] = single 200 mg/kg per os, 21-day-old schistosomules
[8] = single 200 mg/kg per os, 21-day-old schistosomules, total worm reduction rate
[9] = 49-day-old adults, total worm reduction rate
[10] = percentage of dead worm in the liver

SMILES | % reduction of schistosomule growth at day 21 after per os application of 200 mg/kg, FWR (%) [2, 7] | % reduction of schistosomule growth at day 21 after per os application of 200 mg/kg, TWR (%) [2, 8] | % reduction of adult worms growth at day 49 after per os application of 400 mg/kg, TWR (%) [3, 9] | Adult worms day 49, per os 400 mg/kg, DEAD WORM (%) [3, 10] | other results
CC(C)(O)[C@H]1CC[C@]2(CC1)OOC1(O2)C2CC3CC(C2)CC1C3 (stereo partly drawn) [OZ108] | 28% | 30% | 28% | 0% | Survival (days) 10 mg/kg po [1]: 5.0 days; Activity (%) 10 mg/kg po [1]: 0/0/0%; Survival (days) 10 mg/kg SSV po [1]: 5.0 days; Activity (%) 10 mg/kg SSV po [1]: 0/0/0%; Survival (days) 10 mg/kg sc [1]: 5.7 days; Activity (%) 10 mg/kg sc [1]: 0/0/0%; IC50 [4]: 29 ng/mL (≈ 0.0899 µM); IC50 [5]: 68 ng/mL (≈ 0.211 µM)
c1cn(C[C@H]2CC[C@]3(CC2)OOC2(O3)C3CC4CC(C3)CC2C4)cn1 (stereo partly drawn) [OZ179] | – | – | – | – | Survival (days) 10 mg/kg po ([1]; hydrochloride, 10 mg/kg): 11.3 days; Activity (%) 10 mg/kg po ([1]; hydrochloride, 10 mg/kg): 99.91%; Survival (days) 10 mg/kg SSV po ([1]; hydrochloride, 10 mg/kg): 10.3 days; Activity (%) 10 mg/kg SSV po ([1]; hydrochloride, 10 mg/kg): 99.78%; Survival (days) 10 mg/kg sc ([1]; hydrochloride, 10 mg/kg): 11.3 days; Activity (%) 10 mg/kg sc ([1]; hydrochloride, 10 mg/kg): 99.91%; ED50 ([6]; Plasmodium berghei, po): 1.4 mg/kg; ED90 [6]: 3.3 mg/kg; ED99 [6]: 6.6 mg/kg; IC50 [4]: 1.1 ng/mL (≈ 0.00319 µM); IC50 [5]: 1.3 ng/mL (≈ 0.00377 µM)
c1ncn(C[C@H]2CC[C@]3(CC2)OOC2(O3)C3CC4CC(C3)CC2C4)n1 (stereo partly drawn) [OZ235, cis-Adamantane-2-spiro-3′-8′-(1′H-1′,2′,4′-triazol-1′-ylmethyl)-1′,2′,4-trioxaspiro[4.5]decane mesylate] | – | – | – | – | Survival (days) 10 mg/kg po ([1]; 10 mg/kg): 8.7 days; Activity (%) 10 mg/kg po ([1]; 10 mg/kg): 99.92%; Survival (days) 10 mg/kg SSV po ([1]; 10 mg/kg): 9.0 days; Activity (%) 10 mg/kg SSV po ([1]; 10 mg/kg): 99.97%; Survival (days) 10 mg/kg sc ([1]; 10 mg/kg): 8.0 days; Activity (%) 10 mg/kg sc ([1]; 10 mg/kg): 97%; ED50 [6]: 4.0 mg/kg; ED90 [6]: 7.1 mg/kg; ED99 [6]: 11 mg/kg; IC50 [4]: 2 ng/mL; IC50 [5]: 1 ng/mL
C1CC2(CCN1)OOC1(O2)C2CC3CC(C2)CC1C3.Cl (stereo not drawn) [OZ80] | 75% | 79% | – | – | % reduction of adult worms growth at day 49 after per os application of 200 mg/kg, TWR (%) ([3]; single 200 mg/kg per os, 49-day-old adults, total worm reduction rate): 0%; Adult worms day 49, per os 200 mg/kg, DEAD WORM (%) ([3]; single 200 mg/kg per os, percentage of dead worm in the liver): 3%
OCCC1CCC2(CC1)OOC1(O2)C2CC3CC(C2)CC1C3 (stereo not drawn) [OZ89] | 81% | 86% | 0% | 17% | –
CC1(C)COC2(CCC3(CC2)OOC2(CC(C)(C)CC(C)(C)C2)O3)OC1 [OZ36] | 12% | 16% | 0/0% | 0/0% | –
CC(C)(C)C1CCC2(CC1)OOC1(O2)C2CC3CC(C2)CC1C3 (stereo not drawn) [OZ18] | 9% | 12% | 0/0% | 0/0% | –
C1C2CC3CC1CC(C2)C31OOC2(O1)C1CC3CC(C1)CC2C3 (stereo not drawn) [OZ04] | 7% | 7% | 0/0% | 0/0% | –
O=C(c1ccccc1)N1CCC2(CC1)OOC1(O2)C2CC3CC(C2)CC1C3 (stereo not drawn) [OZ24] | 61% | 65% | 21% | 0% | –
C1CCCCCC2(CCCCC1)OOC1(O2)C2CC3CC(C2)CC1C3 (stereo not drawn) [OZ20] | 0% | 0% | 0/0% | 0/0% | –
CCOC(=O)N1CCC2(CC1)OOC1(O2)C2CC3CC(C2)CC1C3 (stereo not drawn) [OZ23] | 84% | 90% | 0% | 4% | –
O=C1C2C3CC4C5C3C1C5C1(OOC3(O1)C1CC5CC(C1)CC3C5)C42 (stereo not drawn) [OZ14] | 0% | 7% | 0/0% | 0/0% | –
CCCC1CCC2(CC1)OOC1(O2)C2CC3CC(C2)CC1C3 (stereo not drawn) [OZ25] | 84% | 86% | 46% | 34% | –
O=C1CCC2(CCO1)OOC1(O2)C2CC3CC(C2)CC1C3 (stereo not drawn) [OZ17] | 7% | – | 0% | 5% | % reduction of schistosomule growth at day 21 after per os application of 200 mg/kg, TWR (%) ([2]; po, 200 mg/kg, 504 h): 23%
O=C1CCC2(CC1)OOC1(CCCCCCCCCCC1)O2 [OZ21] | 0% | 0% | 0/0% | 0/0% | –
NC[C@H]1CC[C@]2(CC1)OOC1(O2)C2CC3CC(C2)CC1C3 (stereo partly drawn) [OZ181] | – | – | – | – | Survival (days) 10 mg/kg po ([1]; 10 mg/kg): 9.0 days; Activity (%) 10 mg/kg po ([1]; 10 mg/kg): 99.98%; Survival (days) 10 mg/kg SSV po ([1]; 10 mg/kg): 10.0 days; Activity (%) 10 mg/kg SSV po ([1]; 10 mg/kg): 99.91%; Survival (days) 10 mg/kg sc ([1]; 10 mg/kg): 11.0 days; Activity (%) 10 mg/kg sc ([1]; 10 mg/kg): 100%; ED50 ([6]; Plasmodium berghei, po): 0.63 mg/kg; ED90 [6]: 1.8 mg/kg; ED99 [6]: 4.0 mg/kg
c1ccc2c(c1)COC1(CCC3(CC1)OOC1(O3)C3CC4CC(C3)CC1C4)OC2 (stereo not drawn) [OZ31] | 63% | 60% | 4/4% | 4/4% | –
O=C1CC2CC3(CC2C1)OOC1(O3)C2CC3CC(C2)CC1C3 (stereo not drawn) [OZ12] | 79% | 78% | 14% | 0% | –
C[C@H]1[C@@H](OCc2ccc(C(=O)O)cc2)O[C@@H]2O[C@@]3(C)CC[C@H]4[C@H](C)CC[C@@H]1[C@@]24OO3 [Artelinate, artelinate, reference compound] | – | – | – | – | ED50 [6]: 4.8 mg/kg; ED90 [6]: 10 mg/kg; ED99 [6]: 18 mg/kg
